Test results from US9937194B1, “Compounds and methods for treating inflammatory diseases” (priority 2009, dated 2018).
Where two headings read alike, the source gives them in different places.

Key:
[1] = system: HDAC activity; experiment: H2O2-induced reduction of HDAC activity in PMA-differentiated U937 cells; format: cell-based, human; details: for HDAC activity reached compared with untreated controls: H2O2 200 μM, comparators at highest doses tested; for restoration of H2O2-reduced HDAC activity (%): test concentration not given, bracketed second value not explained
Description: In cell HDAC assay. Cells are incubated with Fluor de Lys™ substrate for 1 hr before lyses. Total HDAC activity from whole cell extracts is measured using the HDAC Fluorimetric Assay/Drug Discovery Kit (BIOMOL® International, Inc., Plymouth Meeting, Pa.).
HDAC expression: In cell HDAC activity assay: U937 is differentiated to macrophage type cells by PMA for 3 days. HDAC fluorescent substrate (Biomol) is added before exposure of oxidative stress (H2O2, 200 μM) or Tobacco smoke conditioned medium for 4 hrs. HDAC activity is measured (Biomol kit). Compounds at different concentrations are treated 20 min before oxidative stress treatment.
PMA-differentiated macrophage-like cells are pretreated with compounds described herein for 20 min. After H2O2 (200 μM) stimulation for 4 hrs, HDAC activity is assayed. Data are expressed as fold changes against positive control treated with H2O2 only. Values represent means of four experiments±SEM.

[2] = system: Akt; experiment: H2O2-induced phosphorylation of Akt in PMA-differentiated U937 cells (western blot); format: cell-based, human
Description: Cell Lysis and Western Blotting. Whole cell protein extracts are prepared using modified RIPA buffer (50 mM Tris HCL pH 7.4, 0.5% NP-40, 0.25% Na-deoxycholate, 150 mM NaCl with freshly added complete protease (Roche). Phosphatase inhibitor (Active Motif) is also added when required. Protein concentration is determined using the Bio-Rad Protein Assay (Bio-Rad). Proteins are separated by SDS-PAGE under denaturing conditions, and electrotransferred to a nitrocellulose membrane (Amersham Biosciences, Amersham, U.K.) (Western blotting). The membranes are blocked in TBS containing 0.05% Tween 20 and 5% non-fat dried milk, and then incubated with anti-pAkt or Akt antibody followed by an horse radish peroxidase-conjugated secondary antibody (Dako UK Ltd., Ely, UK). Bound antibodies are visualized by ECL Plus (GE Healthcare UK Ltd., Little Chalfont, UK). The band density is calculated by densitometry (UVP Bioimaging Systems, Cambridge, UK) using Labworks software (Ultra-Violet Products, Cambridge, UK).
Effects of compounds on H2O2-induced phosphorylation of Akt in PMA-differentiated U937 cells. PMA-differentiated macrophage-like cells are pretreated with compounds described herein for 20 min. After H2O2 (1 mM) stimulation for 30 min, cells are lysed. Phosphorylation levels of Akt are measured by western blot. Data are calculated relative to total protein, and expressed as fold changes against positive control treated with H2O2 only. Values represent means of three or four experiments±SEM.

[3] = system: IL-8; experiment: LPS-induced IL-8 release in PMA-differentiated U937 cells (ELISA); format: cell-based, human; details: for IC50: LPS-induced IL-8 release, PMA-differentiated U937, NA = inactive; for IL-8 inhibition (%): test concentration not given
Description: (§1) Cytokine ELISA. LPS-induced IL-8, TNFα concentrations and TNFα-induced IL-8 concentrations are determined by sandwich ELISA according to the manufacturer's instructions (R&D Systems Europe). IC50 values for dexamethasone on IL-8 production are calculated using the computer program Prism 4.0 (GraphPad Software Inc., San Diego, Calif.) as a marker for steroid sensitivity.
(§2) Effects of compounds on LPS-induced IL-8 and TNFα release in PMA-differentiated U937 cells. PMA-differentiated macrophage-like cells are pretreated with compounds described herein for 1 hr, followed by LPS (100 ng/ml) stimulation for 4 hrs. LPS-induced IL-8 and TNFα release is evaluated by ELISA. Values represent means of three experiments±SEM.

[4] = system: TNFα; experiment: LPS-induced TNFα release in PMA-differentiated U937 cells (ELISA); format: cell-based, human; details: for IC50: LPS-induced TNFα release, PMA-differentiated U937, NA = inactive; for TNFα inhibition (%): test concentration not given
Description: as §1, §2

[5] = system: MMP9; experiment: PMA-induced MMP9 expression in U937 cells (gelatin zymography); format: cell-based, human; details: for MMP9 inhibition (%): test concentration not given, bracketed second value not explained
Description: Zymography. MMP9 enzyme activity is measured by gelatin zymography. 5 μl of supernatants were diluted with 5 μl Laemli sample buffer (Bio-Rad) and are loaded on a Novex® 10% Zymogram (Gelatin) gel (Invitrogen). After electrophoresis (90 min, 125 V, 35 mA, 5 W) gels are incubated with 1× Novex® zymogram renaturing buffer (Invitrogen) for 30 min at room temperature with gentle agitation. Gels are then rinsed in 1× Novex® zymogram developing buffer (Invitrogen) for 30 min at room temperature with gentle agitation prior to overnight incubation in the developing buffer at 37° C. After incubation the gels are stained using the colloidal blue staining kit (Invitrogen) with buffer containing 20% methanol and 70% distilled water to visualize the zymogen bands. Relevant band intensities are quantified by densitometric analysis using the UVP GelDoc-It system.
Effects of compounds on PMA-induced MMP9 expression in U937 cells. U937 cells are pretreated with compounds described herein for 1 hr, followed by PMA (50 ng/ml) treatment for 48 hrs. After 48 hrs supernatants are collected for zymography. MMP9 enzyme activity is measured by gelatin zymography. Data are expressed as fold changes against positive control treated with PMA only. Values represent means of three experiments±SEM.

[6] = system: U937 cells; experiment: H2O2-induced steroid insensitivity in U937 cells (dexamethasone IC50 on TNFα-induced IL-8); format: cell-based, human; details: highest concentration tested (100 μM); H2O2 200 μM
Description: as §1
Restoration of steroid sensitivity. U937 cells: U937 are treated with oxidative stress (H2O2, 200 μM or 0.15 dilution CSM (cigarette smoke conditioned medium)) and 4 hours later, stimulated with TNFα (10 ng/ml) in the presence of dexamethasone (10^−11-10^−6M). Supernatant and cells are collected 24 hrs after stimulation and IL-8 is measured by conventional ELISA. As the index of corticosteroid sensitivity, IC50 of dexamethasone is calculated. Test compounds are treated 20 min before oxidative stress treatment.
Effects of compounds on H2O2-induced steroid insensitivity in U937 cells. Cells stimulated with H2O2 (200 μM) overnight are incubated with compounds described herein for 30 min under H2O2 (200 μM) exposure. The cells are treated with dexamethasone (10^−11 to 10^−6 M) for 20 min, followed by the TNFα stimulation overnight. TNFα-induced IL-8 release is evaluated by ELISA and IC50 values for dexamethasone on IL-8 production are calculated using Prism. Data are expressed as fold changes against positive control treated with H2O2 only. Values represent means of four experiments±SEM. H2O2 exposure reduces dexamethasone sensitivity by approximately 4 fold based on calculated IC50 values of TNFα-induced IL-8 production.

[7] = format: cell-based
Description: The human monocytic cell line U937 and the human type II alveolar epithelial carcinoma cell line A549 were obtained from the American Type Culture Collection (ATCC, Rockville, Md.). PBMCs from COPD patients were obtained in Brompton hospital and separated by AccuSPIN (Sigma-Aldrich, Poole, UK). Cells were cultured in complete growth medium (Sigma-Aldrich) (RPMI 1640 for U937, PBMCs, and Dulbecco's modified essential medium (DMEM) for A549) supplemented with 10% fetal bovine serum (FBS) and 1% L-glutamine at 37° C. in a humidified atmosphere with 5% CO2. U937 were differentiated into an adherent macrophage-like morphology by exposure to PMA (50 or 100 ng/ml) for 48 hrs in complete growth medium. Cell viability was assessed microscopically by trypan blue staining. Cell toxicity was determined by MTT assay as needed. This study was approved by the ethics committee of the Royal Brompton Hospitals, and all subjects gave written informed consent.

[8] = system: K. pneumonia 13883; experiment: MIC; format: cell-based; details: in µg/mL
[9] = system: H. influenzae ATCC 49247; experiment: MIC; format: cell-based
[10] = system: H. influenzae LC002; experiment: MIC; format: cell-based
[11] = system: S. pneumoniae ATCC 49619; experiment: MIC; format: cell-based
[12] = system: S. aureus ATCC 29213 (MSSA) MLS-S; experiment: MIC; format: cell-based
[13] = system: S. aureus MRSA 33591; experiment: MIC; format: cell-based
[14] = system: E. faecium ATCC 19434; experiment: MIC; format: cell-based
[15] = system: HDAC2 mRNA; experiment: Cigarette smoke extract-induced reduction of HDAC2 mRNA in A549 cells; format: cell-based, human
Description: Preparations of cigarette smoke extract. To prepare the cigarette smoke extract, two full-strength Marlboro cigarettes (filters removed; Phillip Morris USA, Richmond, Va.) are combusted through a modified 60-ml syringe apparatus, and the smoke passed through 20 ml of DMEM medium. Each cigarette generally yields five draws of the syringe (to the 60-ml mark), with each individual draw taking approximately 10 s to complete. Cigarette smoke extract is then passed through a 0.20-μm filter to sterilize and remove particulate matter and is used immediately unless otherwise stated.
Quantitative RT-PCR. Total RNA extraction and reverse transcription are performed using an RNeasy kit (QIAGEN, Crawley, UK) and a High-Capacity cDNA Reverse Transcription Kits (Applied Biosystems, Foster City, Calif.). Gene transcript level of HDAC2 (HS00231032_M1, Applied Biosystems, California, USA) and the house-keeping gene, guanine nucleotide binding protein beta polypeptide-2-like 1 (GNB2L1) (HS00272002_M1, Applied Biosystems) are quantified by real-time PCR using a TaqMan® Gene Expression Master Mix (Applied Biosystems) on a Rotor-Gene 6000 (Corbett Research, Cambridge, UK). Transcripts are analysed by the delta (D) CT method and variations in cDNA concentrations between different samples were corrected using GNB2L1.
Effects of macrolides on cigarette smoke extract-induced (CSE-induced) reduction of HDAC2 mRNA in A549 cells. Cells pretreated with compounds described herein for 30 min are exposed to CSE (0.15 O.D.) for 1 hr. The cells are washed twice and incubated with medium only for 4 hrs. Data are expressed as % reduction from baseline (left) or % increase from baseline under H2O2. Values represent means of three experiments±SEM. Example 33 reverses cigarette smoke extract-induced (CSE-induced) reduction of HDAC2 mRNA expression in A549 cells at concentrations of about 10 μM or greater, and with statistical significance of p<0.05 versus treatment with CSE only (one-way ANOVA with post hoc test, n=3) at doses of about 30 μM or greater.

CC[C@H]1OC(=O)[C@H](C)[C@@H](O[C@H]2C[C@@](C)(OC)[C@@H](O)[C@H](C)O2)[C@H](C)[C@@H](O[C@@H]2O[C@H](C)C[C@H](N(C)C)[C@H]2O)[C@](C)(OC)C[C@@H](C)C(=O)[C@H](C)[C@@H](O)[C@]1(C)O [CLR, clarithromycin, reference compound]
restoration of HDAC activity compared with Example 33 ([1]; PMA-differentiated U937, H2O2 200 μM 4 hrs): only at much higher doses than Example 33
HDAC activity reached compared with untreated controls ([1]; PMA-differentiated U937): only restore HDAC activity to levels comparable to untreated controls
restoration of H2O2-reduced HDAC activity (%) [1]: 14%
inhibition of Akt phosphorylation compared with Example 33 ([2]; PMA-differentiated U937, H2O2 1 mM 30 min): only at much higher concentrations than Example 33
IC50 ([3]; Homo sapiens, U-937): 507 ± 44 µM
inhibition of LPS-induced IL-8 release compared with Example 33 ([3]; LPS 100 ng/ml 4 hrs): at higher concentrations than Example 33
IL-8 inhibition (%) [3]: 17%
IC50 ([4]; Homo sapiens, U-937): 426 ± 64 µM
inhibition of LPS-induced TNFα release compared with Example 33 ([4]; LPS 100 ng/ml 4 hrs): at higher concentrations than Example 33
TNFα inhibition (%) [4]: 21%
MMP9 inhibition (%) [5]: 8 (22) %
restoration of dexamethasone sensitivity [6]: None of ERY, CLR, or AZI restored dexamethasone sensitivity
Cell Toxicity (% cell death) ([7]; human): −7%

CC[C@H]1OC(=O)[C@H](C)C(=O)[C@H](C)[C@@H](O[C@H]2C[C@@H](N(C)C)[C@H](O)[C@@H](C)O2)[C@@](C)(OC)C[C@@H](C)C(=O)[C@H](C)[C@H]2N(CCCCn3cc(-c4ccccn4)nn3)C(=O)O[C@]12C [Example 21]
restoration of H2O2-reduced HDAC activity (%) [1]: 36%
IL-8 inhibition (%) [3]: 59%
TNFα inhibition (%) [4]: 14%
MMP9 inhibition (%) [5]: 49 (41) %
Cell Toxicity (% cell death) ([7]; test concentration not given): 3%
MIC K. pneumonia 13883 [8]: >64
MIC H. influenzae ATCC 49247 [9]: > 64 µg/mL
MIC H. influenzae LC002 [10]: > 64 µg/mL
MIC S. pneumoniae ATCC 49619 [11]: > 64 µg/mL
MIC S. aureus ATCC 29213 (MSSA) MLS-S [12]: > 64 µg/mL
MIC S. aureus MRSA 33591 [13]: > 64 µg/mL
MIC E. faecium ATCC 19434 [14]: > 64 µg/mL

CCC1OC(=O)C(C)C(OC2CC(C)(OC)C(O)C(C)O2)C(C)C(OC2OC(C)CC(N(C)C)C2O)C(C)(O)CC(C)CN(C(C)=O)C(C)C2OC(=O)OC12C (centres unmarked) [Example 33]
HDAC activity reached compared with untreated controls ([1]; PMA-differentiated U937): higher than untreated controls
concentration at which the H2O2-induced reduction in HDAC activity is restored ([1]; PMA-differentiated U937, pretreated 20 min, H2O2 200 μM 4 hrs): ≥ 10 µM
concentration at which restoration of HDAC activity is statistically significant ([1]; p<0.01 versus H2O2 only, n=4): ≥ 30 µM
concentration at which CSE-induced reduction of HDAC2 mRNA expression is reversed ([15]; A549, pretreated 30 min, CSE 0.15 O.D. 1 hr): ≥ 10 µM
concentration at which reversal of HDAC2 mRNA reduction is statistically significant ([15]; p<0.05 versus CSE only, n=3): ≥ 30 µM
concentration at which inhibition of Akt phosphorylation is statistically significant ([2]; p<0.05 versus H2O2 only, n=3 or 4): ≥ 100 µM
IC50 [3]: 95 ± 14 µM
concentration at which LPS-induced IL-8 release is inhibited ([3]; pretreated 1 hr, LPS 100 ng/ml 4 hrs, p<0.05, n=3): ≥ 100 µM
IC50 [4]: 97 ± 5 µM
concentration at which LPS-induced TNFα release is inhibited ([4]; pretreated 1 hr, LPS 100 ng/ml 4 hrs, p<0.01, n=3): ≥ 100 µM
IC50 ([5]; PMA-induced MMP9 expression, U937, NA = inactive): 56 ± 19 µM
concentration at which PMA-induced MMP9 up-regulation is inhibited ([5]; U937, pretreated 1 hr, PMA 50 ng/ml 48 hrs): ≥ 33 µM
concentration at which inhibition of MMP9 up-regulation is statistically significant ([5]; p<0.05 versus PMA only, n=3): ≥ 100 µM
